Results as given in PMC10151334, “Anti-proliferative potential and oxidative reactivity of thermo-oxidative degradation products of stigmasterol and stigmasteryl esters for human intestinal cells” (Scientific Reports, 2023).
Like-named read-outs stand apart in the source and are kept apart here.

How the values were obtained:
S. typhimurium TA98 = test: Bacterial reverse mutation assay (Ames test), strain TA98; conditions: for reversion of mutations in TA98: 40 μg/mL, presence and absence of the microsomal fraction
Protocol: (§1) Potential mutagenicity or pro-mutagenicity of non-heated and heated ST, ST-LA, and ST-OA was determined using the bacterial reverse mutation assay (Ames test) with Salmonella enterica subsp. enterica ser. typhimurium tester strains TA98, TA100, and TA102, which were obtained from the Polish Collection of Microorganisms of the Institute of Immunology and Experimental Therapy of the Polish Academy of Sciences in Wroclaw.
(§2) Mutagenicity experiments were performed in the liquid pre-incubation assay, without and with metabolic activation by supplying Aroclor 1254-induced rat liver microsomal fraction (S9, Sigma-Aldrich) with NADP and cofactors for NADPH-supported oxidation, according to the procedure described by Mortelmans and Zeiger[39]. Briefly, reaction mixtures, consisting of 12-h bacterial culture, non-heated and heated compound (ST, ST-LA, ST-OA) at a concentration of 40 μg, 0.2 M phosphate buffer (pH 7.4), and alternatively S9 activating mixture, were pre-incubated at 37 °C for 20 min. […] The mutagen, 2-aminoanthracene (5 μg) (Sigma-Aldrich), was a positive control in pro-mutagenicity experiments. After pre-incubation, the reaction mixtures were added to the top agar supplemented with traces of histidine and biotin and poured onto the plates covered with minimum glucose agar. The cultures were incubated for 48 h at 37 °C, and the number of revertants (His+) colonies was counted manually.
(§3) Compounds with MI ≥ 2 can be recognized as potentially mutagenic.

S. typhimurium TA100 = conditions: for Mutagenic index TA100: reference mutagen; for reversion of mutations in TA100: 40 μg/mL, presence and absence of the microsomal fraction
Protocol: as §1, §2, §3

S. typhimurium TA102 = test: Bacterial reverse mutation assay (Ames test), strain TA102; conditions: for effect on TA102 revertants: 40 μg/mL, regardless of metabolic activation (+/− S9)
Protocol: as §1, §2, §3

CCD 841 CoN cells [1] = test: DNA damage detection, comet assay (SCGE); assay type: cell-based, human; conditions: reference oxidant, 100 μM, 30 min
Protocol: The cells were grown at 6-well plates at the established density and standard culture conditions and exposed to the non-heated and heated ST, ST-OA, and ST-LA for 48 h. The non-treated cells and cells treated with H2O2 (100 μM, 30 min) to induce oxidative DNA damage constituted the negative and positive controls, respectively. After treatment, cells were analyzed for DNA damage using a single cell gel electrophoresis (SCGE) called comet assay, described in detail previously. Briefly, harvested cells suspended in low melting point agarose were put onto microscope slides pre-coated with normal melting point agarose and subjected sequentially to lysis, alkaline electrophoresis (pH > 13), and neutralization ([…]). The cells were stained with SYBRGold (Molecular Probes), viewed under a fluorescence microscope (Axiovert 200, Zeiss, Carl Zeiss, Gottingen, Germany), and analyzed using CometScore™ software (TriTek Corp., Sumerduck, VA, USA). At least 100 cells were analyzed on a microscope slide; 300 cells were considered for DNA damage detection in one sample. Data were expressed as the mean percentage of DNA content in the comet tail. […] Based on the comets' categorization, the total comet score (TCS) was calculated according to the formula: TCS = 0(n) + 1(n) + 2(n) + 3(n) + 4(n), where “n” is the number of cells in each comet class (0–4)[45].

[2] = system: caspase 3/7 activity in CCD 841 CoN cells; test: Caspase 3/7 activity assay (APO-One Homogeneous); assay type: cell-based, human; conditions: 40 μg/mL, 24 h
Protocol: CCD 841 CoN cells were grown in black 96-well plates at an initial cell density of 2 × 10^4 cells/cm^2 for 24 h under standard culture conditions. The cell cultures were treated for 24 h with ST, ST-OA, and ST-LA at a 40 μg/mL dose. After treatment, caspase-3/7 activity was determined using the APO-One Homogeneous Caspase-3/7 Assay (Promega Corporation, Wisconsin, USA), which is based on the proteolytic cleavage of C-terminal side of aspartate residue in the DEVD peptide substrate by caspase 3/7 into fluorescent rhodamine 110 (R110). Analysis of caspase 3/7 activity was carried out following the manufacturer's instructions. Briefly, the cells after the treatment were incubated at room temperature with Apo-ONE® Caspase-3/7 Reagent—bifunctional cell lysis/caspase activity buffer combined with the pro-fluorescent caspase-3/7 substrate Z-DEVD-R110. After 4-h incubation, fluorescence was measured at an excitation wavelength of 485 nm and an emission wavelength of 530 nm using a Tecan M200 Infinite microplate reader. Data obtained were normalized to cellular protein content, quantified by BCA assay (Pierce® BCA Protein Assay Kit, Thermo Scientific Inc., USA) according to the manufacturer's protocol.

CCD 841 CoN cells [3] = test: DNA synthesis, BrdU incorporation (Cell Proliferation ELISA); assay type: cell-based, human; conditions: 10-40 μg/mL, 48 h
Protocol: CCD 841 CoN cells were grown in black 96-well plates at an initial cell density of 2 × 10^4 cells/cm^2 for 24 h under standard culture conditions. The cells were treated with ST (2.5, 5, 10, 20, and 40 μg/mL) and its esters ST-OA and ST-LA (10, 20, and 40 μg/mL) for 48 h. DNA synthesis was measured by incorporating thymidine analog 5-bromo-2′-deoxyuridine (BrdU) into newly synthesized DNA using the Cell Proliferation ELISA kit according to the protocol recommended by the manufacturer (Roche Diagnostics GmbH, Mannheim, Germany). Briefly, BrdU was added to the treated cells 24 h before the end of the exposure to the ST, ST-OA, and ST-LA (final BrdU concentration of 10 μM). After treatment, BrdU-labeled DNA was denatured (30 min, 20 °C). Then, BrdU was bonded with a peroxidase-conjugated anti-BrdU antibody (90 min, 20 °C) and reacted with the peroxidase substrate. The absorbance measurement was done with a stop solution (1 M H2SO4) at 450 nm with reference wavelength 690 nm using a Tecan M200 Infinite microplate reader.

CCD 841 CoN cells [4] = test: Cell cycle analysis by flow cytometry (propidium iodide); assay type: cell-based, human; conditions: 40 μg/mL, 24 h
Protocol: CCD 841 CoN cells were grown in 6-well plates at an initial cell density of 2 × 10^4 cells/cm^2 for 24 h under standard culture conditions. The cells were treated for 24 h with the analyzed compounds at a concentration of 40 μg/mL; the high dose was applied because of the relatively low cytotoxic potential of ST-OA and ST-LA as determined in cytotoxicity studies. In addition, the cells were exposed to 0.05 μM camptothecin (Sigma-Aldrich) as a positive reference compound known to modulate cell cycle progression.
After treatment, the cells were harvested by trypsinization, washed in PBS, and fixed in 70% ethanol. Then, the cells were stained with 50 μg/mL propidium iodide in the presence of 100 μg/mL RNase (Sigma-Aldrich). The sample preparation method and staining protocol were described previously. The cycle phase distribution was analyzed with an Amnis™ FlowSight™ flow cytometer (Luminex Corporation, TX, USA).

THLE-2 cells = system: THLE-2 cells; parameters: method as in PMID 31883991; conditions: normal human liver cells; cited from earlier work
CCD 841 CoN cells [5] = test: MultiTox-Fluor Multiplex Cytotoxicity Assay (live and dead cell fluorescence); assay type: cell-based; conditions: doses up to 40 μg/mL, 48 h
Protocol: The normal human diploid CCD 841 CoN cell line (ATCC® CRL-1790™) isolated from colon mucosa was obtained from American Type Culture Collection (ATCC, Manassas, VA, USA). Cells were cultured in Dulbecco’s Modified Eagle’s Medium (DMEM, Sigma-Aldrich) supplemented with fetal bovine serum (FBS; Gibco BRL, Grand Island, NY, USA) to a final concentration of 10% and maintained at 37 °C in a humidified atmosphere with 5% CO2.
In the cytotoxicity experiments, CCD 841 CoN cells were seeded in 96-well plates at an initial density of 2.0 × 10^4 cells/cm^2 and incubated for 24 h. […] Control culture contained the vehicle at the amount corresponding to the sample analyzed.
The Multitox-Fluor Multiplex Cytotoxicity Assay (Promega GmbH, Mannheim, Germany) was applied to determine the relative number of live and dead cells in the CCD 841 CoN cell cultures treated with the analyzed compounds. The assay determined live- and dead-cell protease activities using two fluorogenic peptide substrates, cell-permeant (glycyl-phenylalanyl-amino fluorocoumarin; GF-AFC) and cell-impermeant (bis-alanyl-alanyl-phenylalanyl-rhodamine 110; bis-AAF-R110). After treatment, the cells were incubated with GF-AFC and bis-AAF-R110 substrates for 60 min at 37 °C. The live- and dead-cell proteases produced AFC and R110 products, measured using a Tecan M200 Infinite microplate reader (Tecan Group Ltd., Männedorf, Switzerland) at different excitation (400 nm and 485 nm) and emission (505 nm and 520 nm) spectra. The assay was conducted according to the manufacturer’s instructions.

FHs 74 Int cells = system: FHs 74 Int cells; parameters: method as in PMID 31883991; conditions: normal human small intestine cells; cited from earlier work
[6] = Thermo-oxidative treatment at 180 °C for 8 h, degradation of the compound; assay type: physicochemical; conditions: heated at 180 °C for 8 h under oxygen atmosphere
Protocol: ST, ST-OA, and ST-LA (50 mg each) were placed separately in glass vials and heated at 180 °C for 8 h under an oxygen atmosphere. After thermo-oxidative treatment, the tested compounds were stored at − 20 °C until chemical and biological analyses. The non-heated and heated ST and its esters were analyzed to detect degradation products and oxyderivatives. Analytical methods were described in the article published previously.

[7] = with metabolic activation (+ S9), reference mutagen

SMILES | caspase 3/7 activity [2] | reversion of mutations in TA98 (S. typhimurium TA98) | DNA synthesis inhibition (CCD 841 CoN cells [3]) | reversion of mutations in TA100 (S. typhimurium TA100) | subpopulation of dead cells with lower/reduced DNA content (CCD 841 CoN cells [4]) | cytotoxic effects (THLE-2 cells) | effect on colon cell viability / cytotoxicity (CCD 841 CoN cells [5]) | effect on TA102 revertants (S. typhimurium TA102) | cytotoxic effects (FHs 74 Int cells) | Fatty acid residue depletion (%) [6] | Sterol moiety depletion (%) [6] | further results
Nc1ccc2cc3ccccc3cc2c1 [2-Aminoanthracene, 2-aminoanthracene, reference compound] |  |  |  |  |  |  |  |  |  |  |  | Mutagenic index TA98 (S. typhimurium TA98; [7]): 6.00; Mutagenic index TA100 (S. typhimurium TA100; with metabolic activation (+ S9)): 2.03; Mutagenic index TA102 (S. typhimurium TA102; [7]): 2.95
OO [H2O2, reference compound] |  |  |  |  |  |  |  |  |  |  |  | total comet score (TCS) (CCD 841 CoN cells [1]): 263.1 ± 29.4
CCCCC/C=C\C/C=C\CCCCCCCC(=O)OC1CCC2(C)C(=CCC3C2CCC2(C)C(C(C)/C=C/C(CC)C(C)C)CCC32)C1 (stereo not shown) [ST-LA, stigmasteryl linoleate] | slightly increased caspase-3/7 activities | did not induce the reversion of mutations | not observed | did not induce the reversion of mutations | Slight expanding the cell subpopulation with reduced DNA content | no cytotoxic effects | did not affect colon cell viability | did not affect the number of TA102 revertants | no cytotoxic effects | 31.11 ± 3.2% | 71.6 ± 6.6% | 
CCCCCCCC/C=C\CCCCCCCC(=O)OC1CCC2(C)C(=CCC3C2CCC2(C)C(C(C)/C=C/C(CC)C(C)C)CCC32)C1 (stereo not shown) [ST-OA, stigmasteryl oleate] | slightly increased caspase-3/7 activities | did not induce the reversion of mutations | not observed | did not induce the reversion of mutations | Slight expanding the cell subpopulation with reduced DNA content | no cytotoxic effects | did not affect colon cell viability | did not affect the number of TA102 revertants | no cytotoxic effects | 77.14 ± 5.3% | 88.8 ± 3.5% | 
[N-]=[N+]=[N-].[Na+] [Sodium azide, sodium azide, reference compound] |  |  |  |  |  |  |  |  |  |  |  | Mutagenic index TA100 (S. typhimurium TA100; without metabolic activation (− S9), dose printed with the label): 13.55; Mutagenic index TA100 (S. typhimurium TA100; without metabolic activation (− S9), dose printed with the label, listed as sodium azide): 13.6
